Assay results from ChEMBL document CHEMBL2424562, “A comparative study of antimicrobial properties of cyclo(l-Pro- l-Asp) with its 2-ketopiperazine analog” (2013).
Values after ≈ are worked out from the molar mass of the structure shown.

Columns and labels:
Type in all cases: functional
Staphylococcus aureus [1] = assay: Antibacterial activity against Staphylococcus aureus MTCC 902 after 24 hrs by two-fold dilution method; conditions: MTCC 902, 24 h
Pseudomonas aeruginosa [2] = assay: Antibacterial activity against Pseudomonas aeruginosa MTCC 2642 after 24 hrs by two-fold dilution method; conditions: MTCC 2642, 24 h
Klebsiella pneumoniae [3] = assay: Antibacterial activity against Klebsiella pneumoniae MTCC 109 after 24 hrs by two-fold dilution method; conditions: MTCC 109, 24 h
Escherichia coli [4] = assay: Antibacterial activity against Escherichia coli MTCC 2622 after 24 hrs by two-fold dilution method; conditions: MTCC 2622, 24 h
Bacillus subtilis [5] = assay: Antibacterial activity against Bacillus subtilis MTCC 2756 after 24 hrs by two-fold dilution method; conditions: MTCC 2756, 24 h
Trichophyton rubrum [6] = assay: Antifungal activity against Trichophyton rubrum MTCC 296 at MIC after 48 hrs by disc diffusion method
Penicillium expansum [7] = assay: Antifungal activity against Penicillium expansum MTCC 2006 at MIC after 48 hrs by disc diffusion method
Candida tropicalis [8] = assay: Antifungal activity against Candida tropicalis MTCC 184 at MIC after 48 hrs by disc diffusion method
Candida albicans [9] = assay: Antifungal activity against Candida albicans MTCC 3017 at MIC after 48 hrs by disc diffusion method
Aspergillus tubingensis [10] = assay: Antifungal activity against Aspergillus tubingensis MTCC 2425 at MIC after 48 hrs by disc diffusion method
Aspergillus niger [11] = assay: Antifungal activity against Aspergillus niger MTCC 277 at MIC after 48 hrs by disc diffusion method
Aspergillus fumigatus [12] = assay: Antifungal activity against Aspergillus fumigatus MTCC 3376 at MIC after 48 hrs by disc diffusion method
Aspergillus flavus [13] = assay: Antifungal activity against Aspergillus flavus MTCC 183 at MIC after 48 hrs by disc diffusion method
Penicillium expansum [14] = assay: Ratio of amphotericin B MIC to compound MIC for Penicillium expansum MTCC 2006
Trichophyton rubrum [15] = assay: Antifungal activity against Trichophyton rubrum MTCC 296 at 30 degC after 72 hrs by microbroth dilution technique; conditions: MTCC 296, 72 h
Penicillium expansum [16] = assay: Antifungal activity against Penicillium expansum MTCC 2006 at 30 degC after 72 hrs by microbroth dilution technique; conditions: MTCC 2006, 72 h
Candida tropicalis [17] = assay: Antifungal activity against Candida tropicalis MTCC 184 at 37 degC after 48 hrs by microbroth dilution technique; conditions: MTCC 184, 48 h
Candida albicans [18] = assay: Antifungal activity against Candida albicans MTCC 3017 at 37 degC after 48 hrs by microbroth dilution technique; conditions: MTCC 3017, 48 h
Aspergillus tubingensis [19] = assay: Antifungal activity against Aspergillus tubingensis MTCC 2425 at 30 degC after 72 hrs by microbroth dilution technique; conditions: MTCC 2425, 72 h
Aspergillus niger [20] = assay: Antifungal activity against Aspergillus niger MTCC 277 at 30 degC after 72 hrs by microbroth dilution technique; conditions: MTCC 277, 72 h
Aspergillus fumigatus [21] = assay: Antifungal activity against Aspergillus fumigatus MTCC 3376 at 30 degC after 72 hrs by microbroth dilution technique; conditions: MTCC 3376, 72 h
Aspergillus flavus [22] = assay: Antifungal activity against Aspergillus flavus MTCC 183 at 30 degC after 72 hrs by microbroth dilution technique; conditions: MTCC 183, 72 h
[23] = system: Staphylococcus epidermidis; assay: Antibacterial activity against Staphylococcus epidermidis MTCC 435 at MIC after overnight incubation by disc diffusion method
Staphylococcus aureus [24] = assay: Antibacterial activity against Staphylococcus aureus MTCC 902 at MIC after overnight incubation by disc diffusion method
Pseudomonas aeruginosa [25] = assay: Antibacterial activity against Pseudomonas aeruginosa MTCC 2642 at MIC after overnight incubation by disc diffusion method
Klebsiella pneumoniae [26] = assay: Antibacterial activity against Klebsiella pneumoniae MTCC 109 at MIC after overnight incubation by disc diffusion method
Escherichia coli [27] = assay: Antibacterial activity against Escherichia coli MTCC 2622 at MIC after overnight incubation by disc diffusion method
Bacillus subtilis [28] = assay: Antibacterial activity against Bacillus subtilis MTCC 2756 at MIC after overnight incubation by disc diffusion method
[29] = system: Staphylococcus epidermidis; assay: Antibacterial activity against Staphylococcus epidermidis MTCC 435 after 24 hrs by two-fold dilution method; conditions: MTCC 435, 24 h

`O=C(O)C[C@@H]1NC(=O)[C@@H]2CCCN2C1=O` gave an MIC (Staphylococcus aureus [1]) of 64 µg/mL (≈ 302 µM), an MIC (Pseudomonas aeruginosa [2]) of 16 µg/mL (≈ 75.4 µM) and an MIC (Klebsiella pneumoniae [3]) of 8 µg/mL (≈ 37.7 µM). The MIC (Escherichia coli [4]) was 16 µg/mL (≈ 75.4 µM), the MIC (Bacillus subtilis [5]) was 32 µg/mL (≈ 151 µM) and the “diameter of the inhibition zone (DIZ)” value (Trichophyton rubrum [6]) was 38 mm. For the same compound, the “diameter of the inhibition zone (DIZ)” value (Penicillium expansum [7]) was 29 mm, the “diameter of the inhibition zone (DIZ)” value (Candida tropicalis [8]) was 33 mm and the “diameter of the inhibition zone (DIZ)” value (Candida albicans [9]) was 26 mm. The “diameter of the inhibition zone (DIZ)” value (Aspergillus tubingensis [10]) was 25 mm, the “diameter of the inhibition zone (DIZ)” value (Aspergillus niger [11]) was 22 mm and the “diameter of the inhibition zone (DIZ)” value (Aspergillus fumigatus [12]) was 23 mm. The “diameter of the inhibition zone (DIZ)” value (Aspergillus flavus [13]) was 28 mm, the Ratio (Penicillium expansum [14]) was 8 and the MIC (Trichophyton rubrum [15]) was 2 µg/mL (≈ 9.42 µM). For the same compound, the MIC (Penicillium expansum [16]) was 8 µg/mL (≈ 37.7 µM), the MIC (Candida tropicalis [17]) was 4 µg/mL (≈ 18.8 µM) and the MIC (Candida albicans [18]) was 8 µg/mL (≈ 37.7 µM). It also gave an MIC (Aspergillus tubingensis [19]) of 32 µg/mL (≈ 151 µM), an MIC (Aspergillus niger [20]) of 16 µg/mL (≈ 75.4 µM) and an MIC (Aspergillus fumigatus [21]) of 32 µg/mL (≈ 151 µM). For the same compound, the MIC (Aspergillus flavus [22]) was 16 µg/mL (≈ 75.4 µM), the “diameter of the inhibition zone (DIZ)” value [23] was 24 mm and the “diameter of the inhibition zone (DIZ)” value (Staphylococcus aureus [24]) was 21 mm. For the same compound, the “diameter of the inhibition zone (DIZ)” value (Pseudomonas aeruginosa [25]) was 26 mm, the “diameter of the inhibition zone (DIZ)” value (Klebsiella pneumoniae [26]) was 31 mm and the “diameter of the inhibition zone (DIZ)” value (Escherichia coli [27]) was 26 mm. For the same compound, the “diameter of the inhibition zone (DIZ)” value (Bacillus subtilis [28]) was 24 mm and the MIC [29] was 64 µg/mL (≈ 302 µM).
With `C[C@@H]1[C@H](O)[C@@H](C)/C=C/C=C/C=C/C=C/C=C/C=C/C=C/[C@H](O[C@@H]2O[C@H](C)[C@@H](O)[C@H](N)[C@@H]2O)C[C@@H]2O[C@](O)(C[C@@H](O)C[C@@H](O)[C@H](O)CC[C@@H](O)C[C@@H](O)CC(=O)O[C@H]1C)C[C@H](O)[C@H]2C(=O)O` [AMPHOTERICIN B] the “diameter of the inhibition zone (DIZ)” value (Trichophyton rubrum [6]) was 29 mm, the “diameter of the inhibition zone (DIZ)” value (Penicillium expansum [7]) was 20 mm and the “diameter of the inhibition zone (DIZ)” value (Candida tropicalis [8]) was 24 mm. The “diameter of the inhibition zone (DIZ)” value (Candida albicans [9]) was 31 mm, the “diameter of the inhibition zone (DIZ)” value (Aspergillus tubingensis [10]) was 30 mm and the “diameter of the inhibition zone (DIZ)” value (Aspergillus niger [11]) was 26 mm. The “diameter of the inhibition zone (DIZ)” value (Aspergillus fumigatus [12]) was 25 mm, the “diameter of the inhibition zone (DIZ)” value (Aspergillus flavus [13]) was 22 mm and the MIC (Trichophyton rubrum [15]) was 4 µg/mL (≈ 4.33 µM). For the same compound, the MIC (Penicillium expansum [16]) was 64 µg/mL (≈ 69.3 µM), the MIC (Candida tropicalis [17]) was 8 µg/mL (≈ 8.66 µM) and the MIC (Candida albicans [18]) was 16 µg/mL (≈ 17.3 µM). For the same compound, the MIC (Aspergillus tubingensis [19]) was 64 µg/mL (≈ 69.3 µM), the MIC (Aspergillus niger [20]) was 32 µg/mL (≈ 34.6 µM) and the MIC (Aspergillus fumigatus [21]) was 16 µg/mL (≈ 17.3 µM). For the same compound, the MIC (Aspergillus flavus [22]) was 16 µg/mL (≈ 17.3 µM).
In the case of `O=C(O)c1cn(C2CC2)c2cc(N3CCNCC3)c(F)cc2c1=O` [CIPROFLOXACIN], the MIC (Staphylococcus aureus [1]) is reported as 1 µg/mL (≈ 3.02 µM), the MIC (Pseudomonas aeruginosa [2]) is reported as 1 µg/mL (≈ 3.02 µM) and the MIC (Klebsiella pneumoniae [3]) is reported as 0.5 µg/mL (≈ 1.51 µM). For the same compound, the MIC (Bacillus subtilis [5]) was 2 µg/mL (≈ 6.04 µM), the “diameter of the inhibition zone (DIZ)” value [23] was 31 mm and the “diameter of the inhibition zone (DIZ)” value (Staphylococcus aureus [24]) was 31 mm. For the same compound, the “diameter of the inhibition zone (DIZ)” value (Pseudomonas aeruginosa [25]) was 33 mm, the “diameter of the inhibition zone (DIZ)” value (Klebsiella pneumoniae [26]) was 33 mm and the “diameter of the inhibition zone (DIZ)” value (Escherichia coli [27]) was 32 mm. The “diameter of the inhibition zone (DIZ)” value (Bacillus subtilis [28]) was 30 mm and the MIC [29] was 0.25 µg/mL (≈ 0.754 µM).
For `O=C(O)C[C@@H]1NC[C@@H]2CCCN2C1=O`, the MIC (Staphylococcus aureus [1]) was 250 µg/mL (≈ 1260 µM), the MIC (Pseudomonas aeruginosa [2]) was 125 µg/mL (≈ 631 µM) and the MIC (Klebsiella pneumoniae [3]) was 32 µg/mL (≈ 161 µM). For the same compound, the MIC (Escherichia coli [4]) was 64 µg/mL (≈ 323 µM), the MIC (Bacillus subtilis [5]) was 125 µg/mL (≈ 631 µM) and the “diameter of the inhibition zone (DIZ)” value (Trichophyton rubrum [6]) was 28 mm. For the same compound, the “diameter of the inhibition zone (DIZ)” value (Penicillium expansum [7]) was 13 mm, the “diameter of the inhibition zone (DIZ)” value (Candida tropicalis [8]) was 14 mm and the “diameter of the inhibition zone (DIZ)” value (Candida albicans [9]) was 15 mm. For the same compound, the “diameter of the inhibition zone (DIZ)” value (Aspergillus tubingensis [10]) was 21 mm, the “diameter of the inhibition zone (DIZ)” value (Aspergillus niger [11]) was 19 mm and the “diameter of the inhibition zone (DIZ)” value (Aspergillus fumigatus [12]) was 18 mm. For the same compound, the “diameter of the inhibition zone (DIZ)” value (Aspergillus flavus [13]) was 24 mm, the MIC (Trichophyton rubrum [15]) was 8 µg/mL (≈ 40.4 µM) and the MIC (Penicillium expansum [16]) was 500 µg/mL (≈ 2520 µM). The MIC (Candida tropicalis [17]) was 125 µg/mL (≈ 631 µM), the MIC (Candida albicans [18]) was 250 µg/mL (≈ 1260 µM) and the MIC (Aspergillus tubingensis [19]) was 125 µg/mL (≈ 631 µM). It also gave an MIC (Aspergillus niger [20]) of 64 µg/mL (≈ 323 µM), an MIC (Aspergillus fumigatus [21]) of 250 µg/mL (≈ 1260 µM) and an MIC (Aspergillus flavus [22]) of 32 µg/mL (≈ 161 µM). The “diameter of the inhibition zone (DIZ)” value [23] was 23 mm, the “diameter of the inhibition zone (DIZ)” value (Staphylococcus aureus [24]) was 16 mm and the “diameter of the inhibition zone (DIZ)” value (Pseudomonas aeruginosa [25]) was 14 mm. For the same compound, the “diameter of the inhibition zone (DIZ)” value (Klebsiella pneumoniae [26]) was 17 mm, the “diameter of the inhibition zone (DIZ)” value (Escherichia coli [27]) was 19 mm and the “diameter of the inhibition zone (DIZ)” value (Bacillus subtilis [28]) was 15 mm. The MIC [29] was 64 µg/mL (≈ 323 µM).
